In brackets after ≈: the same amount, converted by molar mass.
What was measured:
[1] = Solubility in DMSO; format: physicochemical; settings: in 1 ml DMSO
Description: Nitazoxanide (NTZ), the compound of formula (II), is the generic name for 2-(acetolyloxy)-N-(5-nitro 2-thiazoly) benzamide, a compound first synthesized by Rossignol and Cavier in 1975. 2 mg of nitazoxanide can be dissolved in 1 ml DMSO. Nitazoxanide is easily absorbed orally.

[2] = test system: Cryptosporidium parvum; format: in vivo
Description: An open-label study of nitazoxanide for AIDS-related cryptosporidial diarrhea documented decreased bowel movements among persons taking 500, 1000, 1500, or 2000 mg of the drug daily. […] Almost all participants had failed therapy with azithromycin or paromomycin.
By the end of the study, 8 of 11 had completely eradicated the parasite and the other three had substantial reductions in oocyst levels. There was a trend toward better response with doses of 1000 mg daily or higher and with longer therapy. Two trial participants had urticarial skin rashes; more than 90 percent adhered to the study regimen for more than four weeks.

[3] = test system: RH strain of Toxoplasma gondii; test: Toxoplasma gondii growth in MRC5 fibroblast cultures, ELISA; format: cell-based
[4] = test system: mycobacteria; test: MTS colorimetric assay of mycobacteria growing in a liquid broth; format: cell-based
Description: Fig. 7 is a chart based upon the assay for nitazoxanide effectiveness against mycobacteria growing in a liquid broth. We used the MTS colorimetric assay which permits us to determine growth in 4 hours rather than 3 weeks as with the agar counting method.

[5] = test system: Cryptosporidium parvum; test: Experimentally infected suckling mice, oocyst shedding; format: in vivo
Description: The effect of nitazoxanide was tested against Cryptosporidium parvum in experimentally infected mice. Nitazoxanide was supplied by Romark Laboratories, L.C. in Tampa, Florida. The total human dose (1 g/day for 7 days i.e. 7 g) was modified for use for mice according to Paget and Barnes. The human dose was multiplied by 0.0026 for mice (weighing approximately 20 grams) to obtain he total amount of the drug needed for each host morning and evening for 7 consecutive days. […] The doses were administered by mouth using a plastic syringe equipped with around tip needle. Twenty (20) 2-day old suckling mice were infected by oral administration of 100,000 oocysts of Crytospordium parvum obtained from infected calves. Before being administered to mice, the oocysts were concentrated using a sugar solution according to the technique described by […]. Rectal swabs from each mouse were obtained and examined daily using the modified […] staining technique described by Graczyk et al. Oocysts shedding appeared in feces 2 days after the oral infection of the animals. On the third day following infection of the animals, 10 mice received 1.3 mg of nitazoxanide, morning and evening, for 7 consecutive days while the 10 remaining mice were kept as untreated controls. Rectal swabs were obtained daily for each of the 7 days of treatment and for each of the 7 days following the end of treatment. The oocysts were suspended in oil and counted per 100 fields under a microscope.

[6] = test system: MRC5 fibroblasts; settings: human, 72 h
[7] = after 23 weeks, 500, 1000, 1500, or 2000 mg daily

Structure (SMILES): CC(=O)Oc1ccccc1C(=O)Nc1ncc([N+](=O)[O-])s1 [Nitazoxanide, 2-(acetolyloxy)-N-(5-nitro 2-thiazoly) benzamide]
- amount that can be dissolved [1]: 2 mg
- complete clinical response (one to three predominantly formed bowel movements daily) [2, 7]: 9 of 13
- partial clinical response [2, 7]: 4 of 13
- completely eradicated the parasite ([2]; by the end of the study): 8 of 11
- substantial reductions in oocyst levels ([2]; by the end of the study, remaining of 11): three
- concentration with significant effect (inhibition) ([3]; 72 hours): ≥ 0.6 mg/L
- concentrations with complete inhibition of Toxoplasma growth ([3]; 72 hours): ≥ 2.5 mg/L
- IC50 ([3]; Toxoplasma gondii, MRC5, 72 hours, estimated from regression analysis, read-out: 50% inhibitory concentration): 1.2 µg/mL (≈ 3.91 µM)
- concentrations at which a marked inhibition of Toxoplasma growth could be observed ([3]; alteration of the parasitophorous vacuole, no marked alteration of the parasite itself): approximately 1.2 mg/L
- microscopic examination of the monolayer ([3]; concentration of 1.25 mg/L): induced cytopathic effect on the parasitized cells, with enlargement of the parasitophorous vacuole and reduction of the number of the intra-celular parasites
- effect on continued growth ([4]; 3 µg/ml dose added at the 72 hr after culture was initiated): stops growth for the next 24 hrs and then there is a slow growth afterwards for the next 2 days
- effect on continued growth ([4]; 50 µg/ml dose added at the 72 hr after culture was initiated): completely bacteriostatic throughout the 144 hours of the culture
- oocyst shedding at the end of treatment ([5]; Day 7, 2.6 mg/day by mouth for 7 consecutive days, suckling mice): complete reduction of the oocyst shedding
- fecal examinations after the end of treatment ([5]; days 3 and 7 after the end of treatment): negative examinations
- treated mice with decreased oocysts shedding ([5]; end of the third day of treatment, 2.6 mg/day by mouth for 7 consecutive days, suckling mice): 6 of the 10
- concentrations with marked toxicity on the cell monolayer [6]: ≥ 2500 ng/mL
